# Reference: PubChem BioAssay (NCI)
#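 Five concentrations, 48 hours, 96-well plates. TGI is the concentration that stops growth completely.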
# Tests used:
# Test in all cases: NCI tumour cell line growth inhibition, 48 h
# [1] = system: 786-0 renal
# [2] = system: A498 renal
# [3] = system: A549 NSCLC
# [4] = system: ACHN renal
# [5] = system: CAKI-1 renal
# [6] = system: CCRF-CEM leukemia
# [7] = system: COLO 205 colon
# [8] = system: DLD-1 colon
# [9] = system: DMS 273 small cell lung
# [10] = system: EKVX NSCLC
# [11] = system: HCC-2998 colon
# [12] = system: HCT-116 colon
# [13] = system: HCT-15 colon
# [14] = system: HL-60(TB) leukemia
# [15] = system: HOP-18 NSCLC
# [16] = system: HOP-62 NSCLC
# [17] = system: HT29 colon
# [18] = system: IGROV1 ovarian
# [19] = system: K-562 leukemia
# [20] = system: KM12 colon
# [21] = system: KM20L2 colon
# [22] = system: LOX IMVI melanoma
# [23] = system: LXFL 529 NSCLC
# [24] = system: M14 melanoma
# [25] = system: M19-MEL melanoma
# [26] = system: MALME-3M melanoma
# [27] = system: MOLT-4 leukemia
# [28] = system: NCI-H226 lung
# [29] = system: NCI-H23 lung
# [30] = system: NCI-H460 lung
# [31] = system: NCI-H522 lung
# [32] = system: OVCAR-3 ovarian
# [33] = system: OVCAR-4 ovarian
# [34] = system: OVCAR-5 ovarian
# [35] = system: OVCAR-8 ovarian
# [36] = system: RXF 393 renal
# [37] = system: RXF-631 renal
# [38] = system: SF-268 CNS
# [39] = system: SF-295 CNS
# [40] = system: SF-539 CNS
# [41] = system: SK-MEL-2 melanoma
# [42] = system: SK-MEL-28 melanoma
# [43] = system: SK-MEL-5 melanoma
# [44] = system: SK-OV-3 ovarian
# [45] = system: SN12C renal
# [46] = system: SNB-19 CNS
# [47] = system: SNB-75 CNS
# [48] = system: SNB-78 CNS
# [49] = system: SR leukemia
# [50] = system: SW-620 colon
# [51] = system: TK-10 renal
# [52] = system: U251 CNS
# [53] = system: UACC-257 melanoma
# [54] = system: UACC-62 melanoma
# [55] = system: UO-31 renal
# [56] = system: XF 498 CNS
# [57] = system: DMS 114 small cell lung
# [58] = system: HOP-92 NSCLC
# [59] = system: RPMI-8226 leukemia
smiles,measurement,setting,value
Cc1c(Cl)ccc2[s+]snc12,TGI,[1],36.2 µM
same,TGI,[2],> 100 µM
same,TGI,[3],> 100 µM
same,TGI,[4],> 100 µM
same,TGI,[5],> 100 µM
same,TGI,[6],82.6 µM
same,TGI,[7],> 100 µM
same,TGI,[8],62 µM
same,TGI,[9],> 100 µM
same,TGI,[10],> 100 µM
same,TGI,[11],> 100 µM
same,TGI,[12],59 µM
same,TGI,[13],> 100 µM
same,TGI,[14],43.7 µM
same,TGI,[15],95.2 µM
same,TGI,[16],> 100 µM
same,TGI,[17],> 100 µM
same,TGI,[18],> 100 µM
same,TGI,[19],73.7 µM
same,TGI,[20],> 100 µM
same,TGI,[21],> 100 µM
same,TGI,[22],49.9 µM
same,TGI,[23],92 µM
same,TGI,[24],77.8 µM
same,TGI,[25],> 100 µM
same,TGI,[26],> 100 µM
same,TGI,[27],95.1 µM
same,TGI,[28],> 100 µM
same,TGI,[29],> 100 µM
same,TGI,[30],> 100 µM
same,TGI,[31],41.5 µM
same,TGI,[32],> 100 µM
same,TGI,[33],> 100 µM
same,TGI,[34],> 100 µM
same,TGI,[35],57.1 µM
same,TGI,[36],37.2 µM
same,TGI,[37],> 100 µM
same,TGI,[38],62.8 µM
same,TGI,[39],> 100 µM
same,TGI,[40],44.6 µM
same,TGI,[41],77.3 µM
same,TGI,[42],> 100 µM
same,TGI,[43],52.1 µM
same,TGI,[44],> 100 µM
same,TGI,[45],57.3 µM
same,TGI,[46],> 100 µM
same,TGI,[47],> 100 µM
same,TGI,[48],> 100 µM
same,TGI,[49],> 100 µM
same,TGI,[50],52.2 µM
same,TGI,[51],> 100 µM
same,TGI,[52],70.2 µM
same,TGI,[53],89.7 µM
same,TGI,[54],45.2 µM
same,TGI,[55],> 100 µM
same,TGI,[56],55.2 µM
CSC(SC)=C1Sc2cccc(Cl)c2S1,TGI,[1],> 100 µM
same,TGI,[2],> 100 µM
same,TGI,[3],> 100 µM
same,TGI,[4],> 100 µM
same,TGI,[5],> 100 µM
same,TGI,[6],> 100 µM
same,TGI,[7],41.3 µM
same,TGI,[8],> 100 µM
same,TGI,[57],79.8 µM
same,TGI,[9],> 100 µM
same,TGI,[10],> 100 µM
same,TGI,[11],44.9 µM
same,TGI,[12],> 100 µM
same,TGI,[13],> 100 µM
same,TGI,[14],45.9 µM
same,TGI,[15],> 100 µM
same,TGI,[16],> 100 µM
same,TGI,[58],65.8 µM
same,TGI,[17],> 100 µM
same,TGI,[18],> 100 µM
same,TGI,[19],> 100 µM
same,TGI,[20],> 100 µM
same,TGI,[21],> 100 µM
same,TGI,[22],> 100 µM
same,TGI,[23],> 100 µM
same,TGI,[24],> 100 µM
same,TGI,[25],> 100 µM
same,TGI,[26],> 100 µM
same,TGI,[27],> 100 µM
same,TGI,[28],> 100 µM
same,TGI,[29],> 100 µM
same,TGI,[30],> 100 µM
same,TGI,[31],63.8 µM
same,TGI,[33],> 100 µM
same,TGI,[34],> 100 µM
same,TGI,[35],> 100 µM
same,TGI,[59],> 100 µM
same,TGI,[36],88.1 µM
same,TGI,[38],> 100 µM
same,TGI,[39],> 100 µM
same,TGI,[40],> 100 µM
same,TGI,[41],48.8 µM
same,TGI,[42],> 100 µM
same,TGI,[43],> 100 µM
same,TGI,[44],> 100 µM
same,TGI,[45],> 100 µM
same,TGI,[46],> 100 µM
same,TGI,[47],> 100 µM
same,TGI,[48],> 100 µM
same,TGI,[50],> 100 µM
same,TGI,[51],> 100 µM
same,TGI,[52],> 100 µM
same,TGI,[53],> 100 µM
same,TGI,[54],> 100 µM
same,TGI,[55],> 100 µM
same,TGI,[56],76.9 µM
C#CC[C@]12CC(=O)CC[C@H]1CC1(C2)OCCO1,TGI,[1],> 100 µM
same,TGI,[2],> 100 µM
same,TGI,[3],> 100 µM
same,TGI,[4],> 100 µM
same,TGI,[5],> 100 µM
same,TGI,[6],> 100 µM
same,TGI,[7],> 100 µM
same,TGI,[8],> 100 µM
same,TGI,[57],> 100 µM
same,TGI,[9],> 100 µM
same,TGI,[11],> 100 µM
same,TGI,[12],> 100 µM
same,TGI,[13],> 100 µM
same,TGI,[14],> 100 µM
same,TGI,[15],> 100 µM
same,TGI,[16],> 100 µM
same,TGI,[18],> 100 µM
same,TGI,[19],> 100 µM
same,TGI,[20],> 100 µM
same,TGI,[21],> 100 µM
same,TGI,[23],> 100 µM
same,TGI,[24],> 100 µM
same,TGI,[25],> 100 µM
same,TGI,[26],> 100 µM
same,TGI,[27],> 100 µM
same,TGI,[28],> 100 µM
same,TGI,[30],> 100 µM
same,TGI,[31],> 100 µM
same,TGI,[32],> 100 µM
same,TGI,[33],> 100 µM
same,TGI,[35],> 100 µM
same,TGI,[59],> 100 µM
same,TGI,[36],> 100 µM
same,TGI,[37],> 100 µM
same,TGI,[38],> 100 µM
same,TGI,[40],> 100 µM
same,TGI,[41],> 100 µM
same,TGI,[42],> 100 µM
same,TGI,[43],> 100 µM
same,TGI,[44],> 100 µM
same,TGI,[45],> 100 µM
same,TGI,[46],> 100 µM
same,TGI,[47],> 100 µM
same,TGI,[48],> 100 µM
same,TGI,[49],> 100 µM
same,TGI,[50],> 100 µM
same,TGI,[51],> 100 µM
same,TGI,[52],> 100 µM
same,TGI,[53],> 100 µM
same,TGI,[54],> 100 µM
same,TGI,[55],> 100 µM
O=P(c1ccccc1)(c1ccccc1)C1CC=C2CCCCCC2C1 (configuration not stated),TGI,[1],51 µM
same,TGI,[2],97.7 µM
same,TGI,[3],> 10 µM
same,TGI,[5],69.5 µM
same,TGI,[6],61.5 µM
same,TGI,[7],56.4 µM
same,TGI,[57],68.2 µM
same,TGI,[9],64.5 µM
same,TGI,[10],> 100 µM
same,TGI,[12],40.3 µM
same,TGI,[13],> 100 µM
same,TGI,[14],58.9 µM
same,TGI,[15],44.2 µM
same,TGI,[58],39.9 µM
same,TGI,[17],> 100 µM
same,TGI,[18],> 100 µM
same,TGI,[19],76.9 µM
same,TGI,[20],> 100 µM
same,TGI,[21],> 10 µM
same,TGI,[22],65 µM
same,TGI,[23],46.2 µM
same,TGI,[24],40.9 µM
same,TGI,[25],> 100 µM
same,TGI,[26],> 100 µM
same,TGI,[27],45.3 µM
same,TGI,[28],81.1 µM
same,TGI,[29],> 100 µM
same,TGI,[30],> 100 µM
same,TGI,[31],41 µM
same,TGI,[32],50 µM
same,TGI,[33],67.4 µM
same,TGI,[34],62.2 µM
same,TGI,[35],99.2 µM
same,TGI,[59],42.7 µM
same,TGI,[36],72.6 µM
same,TGI,[37],85.4 µM
same,TGI,[38],66 µM
same,TGI,[39],> 100 µM
same,TGI,[40],> 10 µM
same,TGI,[41],81.6 µM
same,TGI,[42],> 10 µM
same,TGI,[43],46.1 µM
same,TGI,[44],85.9 µM
same,TGI,[45],> 100 µM
same,TGI,[46],81.6 µM
same,TGI,[47],62.7 µM
same,TGI,[48],> 100 µM
same,TGI,[50],> 10 µM
same,TGI,[51],> 100 µM
same,TGI,[52],> 100 µM
same,TGI,[53],68.5 µM
same,TGI,[54],69.6 µM
same,TGI,[55],52.7 µM
same,TGI,[56],91.6 µM
